conditions: acidic group

Question: For `N#CCCC(C(=O)O)c1ccccc1` (stereo not given), which pKa is on record?
Answer: 3.92

Question: For `O=Cc1cc([N+](=O)[O-])cc(Br)c1O`, which pKa is on record?
Answer: 3.48

Question: With `Cc1ccc(C(=O)N(C)O)cc1` as the molecule, how does the pKa read?
Answer: 8.5

Question: Which pKa does the source give for `O=C(O)[C@@H]1CC[C@@H](C(=O)O)[Se][Se]1` here?
Answer: 2.85

Question: For `OC(c1ccncc1)(c1ccncc1)c1ccccn1`, which pKa is on record?
Answer: 12.4

Question: Which pKa does the source give for `OB(O)CCc1ccccc1` here?
Answer: 10

Question: For `CC(C#N)CC(=O)O` (stereo not given), which pKa is on record?
Answer: 3.95

Question: With `Cc1cc(C(O)=C(C#N)C#N)cc(C)c1O` as the molecule, how does the pKa read?
Answer: 2.55

Question: With `NS(=O)(=O)c1nnc(Nc2ccccc2)s1` as the molecule, how does the pKa read?
Answer: 7.7

Question: Which pKa does the source give for `Oc1cnc2ccccc2[nH+]1` here?
Answer: -1.37

Question: Which pKa does the source give for `SCc1ncc[nH]1` here?
Answer: 9.26

Question: Which pKa does the source give for `NC(=O)NS(=O)(=O)c1ccc(N)cc1` here?
Answer: 5.41

Question: With `O=C1O[C@@H]([C@H](O)[C@@H](O)[C@@H](O)CO)C([O-])=C1O` as the molecule, how does the pKa read?
Answer: 12

Question: Which pKa does the source give for `C[n+]1ccccc1N` here?
Answer: 12.2

Question: Which pKa does the source give for `O=C(NO)c1ccncc1` here?
Answer: 7.82

Question: For `Oc1ccc(OCc2ccccc2)cc1`, which pKa is on record?
Answer: 10.5

Question: With `O=C(O)c1csc(Br)n1` as the molecule, how does the pKa read?
Answer: 3.28

Question: With `Oc1ccccc1-c1cc2ccccc2cc1O` as the molecule, how does the pKa read?
Answer: 7.55

Question: For `[O-]/C(O)=C1\SCc2ccccc21`, which pKa is on record?
Answer: 12.8

Question: Which pKa does the source give for `C[NH2+]CC(=O)O` here?
Answer: 2.24

Question: With `O=C(O)C(=O)Cc1ccccc1` as the molecule, how does the pKa read?
Answer: 2.68

Question: With `O=C(O)C1CCCc2ccccc2O1` (stereo not given) as the molecule, how does the pKa read?
Answer: 3.63

Question: For `CCOC(=O)COc1ccc(Cc2ccc(O)c(C[NH3+])c2)c(Cl)c1Cl`, which pKa is on record?
Answer: 8.73

Question: With `O=C1C=C(S(=O)(=O)[O-])c2cn[nH]c2/C1=N\O` as the molecule, how does the pKa read?
Answer: 5.85

Question: For `Oc1c(Cl)cc(Cl)c2cccnc12`, which pKa is on record?
Answer: 7.51

Question: With `CC(=O)C1CCCC1=O` (stereo not given) as the molecule, how does the pKa read?
Answer: 7.82

Question: For `CC[NH+]1CCC[C@@H]1CNC(=O)c1c(OC)ccc([N+](=O)[O-])c1O`, which pKa is on record?
Answer: 5.75

Question: Which pKa does the source give for `CCCCB(O)O` here?
Answer: 10.7

Question: For `Oc1cccc(Br)c1`, which pKa is on record?
Answer: 8.99

Question: For `O=C(O)CCc1ccccc1`, which pKa is on record?
Answer: 4.59

Question: Which pKa does the source give for `c1cc(-c2nn[nH]n2)cc(-c2nnn[nH]2)c1` here?
Answer: 3.38

Question: With `C#CCC(=O)O` as the molecule, how does the pKa read?
Answer: 3.31

Question: Which pKa does the source give for `CP(C)(=O)O` here?
Answer: 3.08

Question: With `O=C(O)Cn1cccc1` as the molecule, how does the pKa read?
Answer: 3.3

Question: For `O=C(O)Cn1nnnc1-c1ccccc1`, which pKa is on record?
Answer: 2.11

Question: With `O=C(O)Cc1ccco1` as the molecule, how does the pKa read?
Answer: 3.72

Question: Which pKa does the source give for `OCCO` here?
Answer: 14

Question: Which pKa does the source give for `NCc1cccc(S(N)(=O)=O)c1` here?
Answer: 10.1

Question: Which pKa does the source give for `CCC(Oc1ccccc1C)C(=O)O` (stereo not given) here?
Answer: 3.43

Question: Which pKa does the source give for `CC=C=CC(=O)CC(Cc1ccccc1)C(=O)[O-]` (stereo not given) here?
Answer: 13.9

Question: For `N#CC(C#N)=NNc1ccccc1C(=O)O`, which pKa is on record?
Answer: 6.7

Question: For `Cc1cc(Nc2ccc([O-])cc2)cc(C)c1O`, which pKa is on record?
Answer: 10.9

Question: Which pKa does the source give for `COCC1=C(C(=O)O)CC1` here?
Answer: 4.31

Question: With `Cc1ccc(S(=O)(=O)NC(=O)OC(C)(C)C)cc1` as the molecule, how does the pKa read?
Answer: 5.05

Question: With `[O-]c1ccc(O)cc1Cl` as the molecule, how does the pKa read?
Answer: 10.8

Question: Which pKa does the source give for `CN(C)c1cccc2c(S(=O)(=O)NCC(=O)O)cccc12` here?
Answer: 4.4

Question: For `OC[C@@H]1O[C@@H]2NC(=S)O[C@@H]2[C@H]1O`, which pKa is on record?
Answer: 9.48

Question: Which pKa does the source give for `COC(=O)/C=C(/C)O` here?
Answer: 9.48

Question: Which pKa does the source give for `O=S(=O)([O-])c1cc(O)c2[nH]ncc2c1` here?
Answer: 8

Question: With `O=S(=O)([O-])c1ccc(O)cc1` as the molecule, how does the pKa read?
Answer: 8.91

Question: For `O=[N+]([O-])c1n[nH]c(-n2cnc(Br)n2)n1`, which pKa is on record?
Answer: 1.63

Question: With `O=C(OCc1ccccc1)c1ccc(O)cc1` as the molecule, how does the pKa read?
Answer: 8.31

Question: With `C[Si](C)(C)CC(=O)O` as the molecule, how does the pKa read?
Answer: 5.22

Question: Which pKa does the source give for `CC(=O)c1ccc([N+](=O)[O-])cc1C(=O)O` here?
Answer: 3.27

Question: For `CCOC(=S)S`, which pKa is on record?
Answer: 1.79

Question: For `Oc1cncc[nH+]1`, which pKa is on record?
Answer: -0.1

Question: With `Oc1cc2ccccc2n[nH+]1` as the molecule, how does the pKa read?
Answer: 0.21

Question: With `CSc1ccccc1C(=O)O` as the molecule, how does the pKa read?
Answer: 3.89

Question: For `O[n+]1ccccc1`, which pKa is on record?
Answer: 0.77

Question: Which pKa does the source give for `[NH3+][C@@H](Cc1c[nH]c[nH+]1)C(=O)N[C@@H](Cc1c[nH]c[nH+]1)C(=O)O` here?
Answer: 2.25

Question: Which pKa does the source give for `Cc1cc(Cl)ccc1O` here?
Answer: 9.6

Question: Which pKa does the source give for `O=C(O)c1cnoc1` here?
Answer: 3.39

Question: Which pKa does the source give for `Cc1nn(C)c(O)c1Cc1ccccc1` here?
Answer: 10.9

Question: Which pKa does the source give for `Nc1n[nH]c(N)c1/N=N/c1ccccc1O` here?
Answer: 8.22

Question: For `Cc1nc(Cc2ccccc2)c(O)o1`, which pKa is on record?
Answer: 10.3

Question: For `CC(C)(C)c1ccc(C(=O)/C=C/C(=O)O)cc1`, which pKa is on record?
Answer: 3.42

Question: With `NC(=O)C1CC2CCN1CC2` (stereo not given) as the molecule, how does the pKa read?
Answer: 9.04

Question: With `C[NH+](C)Cc1c(O)c(O)c(O)c(C[NH+](C)C)c1C(=O)[O-]` as the molecule, how does the pKa read?
Answer: 6.95

Question: For `CC(C[NH3+])C(=O)O` (stereo not given), which pKa is on record?
Answer: 3.53

Question: For `CC(=O)c1ccccc1NN=C(C(=O)c1ccccc1)C(=O)c1ccccc1`, which pKa is on record?
Answer: 9.2

Question: For `c1ncc2cn[nH]c2n1`, which pKa is on record?
Answer: 9.54

Question: For `CCCCCCCCCc1c(-c2ccccc2)nn(-c2ccccc2)c1O`, which pKa is on record?
Answer: 7.2

Question: For `C[NH2+]C(C)(C)C(=O)O`, which pKa is on record?
Answer: 2.2

Question: Which pKa does the source give for `CC(=O)NBr` here?
Answer: 8.1

Question: Which pKa does the source give for `Nc1nc[nH+]c2c1ncn2CCOCP(=O)(O)O` here?
Answer: 1.22

Question: Which pKa does the source give for `O=C(O)CCCCC1CCSS1` (stereo not given) here?
Answer: 4.82

Question: Which pKa does the source give for `C#CCCCCC(=O)O` here?
Answer: 4.58

Question: Which pKa does the source give for `CCC1C(=O)COC1=O` (stereo not given) here?
Answer: 4.29

Question: Which pKa does the source give for `C[n+]1cccc2cccc(O)c21` here?
Answer: 6.81

Question: For `COc1cc(S(C)=O)ccc1-c1nc2[nH]ncc2[nH]1` (stereo not given), which pKa is on record?
Answer: 12

Question: For `NC(=O)N/N=C/c1ncnc2nc[nH]c12`, which pKa is on record?
Answer: 9.1

Question: With `O=C(c1ccccc1)N(O)c1ccccc1` as the molecule, how does the pKa read?
Answer: 7.87

Question: With `O=S(=O)(Nc1ncccn1)c1ccccc1` as the molecule, how does the pKa read?
Answer: 5.91

Question: Which pKa does the source give for `C=C[C@@H]1CNC(=S)O1` here?
Answer: 10.2

Question: With `CO` as the molecule, how does the pKa read?
Answer: 15.5

Question: With `SCCNc1ccccc1` as the molecule, how does the pKa read?
Answer: 9.5

Question: For `Cc1cc(-c2c(C)noc2O)on1`, which pKa is on record?
Answer: 3.2

Question: For `O=C(O)CCc1cccs1`, which pKa is on record?
Answer: 4.34

Question: With `Cc1cc(C(=O)O)ccc1Cl` as the molecule, how does the pKa read?
Answer: 4.07

same assay, conditions: basic group

Question: With `C=CC1CN2CCC1C[C@H]2C(=O)[O-]` (stereo not given in full) as the molecule, how does the pKa read?
Answer: 10.6
